Measurements published in publication PMC9950431, “A bivalent remipede toxin promotes calcium release via ryanodine receptor activation” (Nature Communications, 2023).
No end group written: not given here.

Assays:
[1] = system: sarcoplasmic reticulum (SR) in mouse extensor digitorum longus (EDL) fibers; experiment: SR Ca2+ leak in mechanically-skinned EDL muscle fibers (total SR Ca2+ content, [CaT]SR, after 1 min leak); format: cell-based, mouse (C57/Bl6)
Text: All experiments were approved by The University of Queensland Animal Ethics Committees. Male and female C57/Bl6 2–6-month-old mice were sacrificed by asphyxiation via CO2 exposure and the EDL muscles were rapidly excised. The EDL was pinned at resting length in a petri dish lined with Sylgard 184 (Dow Corning, Midland, MI) and immersed in paraffin oil (Ajax Chemicals, Sydney, Australia). Segments of individual fibers were mechanically skinned using jeweler’s forceps and pinned out unstretched under oil[37]–[39]. The skinned fiber was then mounted at 120% of resting length on a force transducer (Myotronic UG, Heidelberg, Germany) before transfer to a 2-ml Perspex bath containing standard K^+-based solution that broadly mimics the intracellular milieu. […] All chemicals were purchased from Sigma-Aldrich (St Louis, MO, USA) unless specified otherwise.
Variations of the standard solution were prepared. To deplete the caffeine releasable Ca^2+ (“full release solution”), 30 mM caffeine was added, [Mg^2+] was lowered to 0.05 mM (total Mg^2+ of 2.1 mM) and free EGTA was adjusted to 0.5 mM (pCa 8.5) to chelate released Ca^2+. To measure the maximum force produced by the skinned fiber, all HDTA was replaced by EGTA (relaxing solution) or CaEGTA (maximum Ca^2+ activating solution). The relaxing solution contained 50 mM EGTA and no added Ca^2+ (pCa > 9) and the maximum Ca^2+-activating solution contained 49.5 mM Ca^2+ (pCa 4.7), with total Mg^2+ of 10.3 and 8.1 mM, respectively, to maintain the free [Mg^2+] at 1 mM. A “leak solution” was also prepared, where [Mg^2+] set at 0.1 mM (total Mg^2+ of 3.4 mM) to increase the PO of RyR and with 2 mM EGTA (pCa ~8.5) to chelate leaky Ca^2+ from the SR. […] The BAPTA solution used to pre-equilibrate fibers before lysing was similar to the standard K-HDTA solution but EGTA was replaced with 0.1–1.6 mM BAPTA[37],[39].
The skinned fiber was then equilibrated for 20 s in a solution with a set [BAPTA] before being placed in a freshly triturated emulsion of Triton X-100 in paraffin oil (TX–oil) (10% v/v). The Ca^2+ released upon the membrane lysing rapidly binds to the known amount of BAPTA present within the fiber and to other sites, predominantly troponin C (TnC). The pre-equilibrating [BAPTA] was chosen such that the fiber produced a finite, non-maximal force response upon lysis. Pre-treatment of the fiber with “full release solution” allowed the non-SR Ca^2+ content of the skinned fiber to be assayed. The total amount of Ca^2+ present in the fiber could be calculated from the [BAPTA] in the equilibration solution and the magnitude of the force response. Data are presented as mean ± SD, with n denoting the number of fibers examined. Statistical significance (p < 0.05) was determined with One-way ANOVA.

RyR1 [2] = target: T1, RyR1 (Oryctolagus cuniculus, UniProt P11716); details: cited from earlier work
T1 construct: skeletal SR vesicles were isolated from the back and leg muscles of mature female New Zealand white rabbits; from tissue; host or cells: rabbit back and leg skeletal muscle, sarcoplasmic reticulum vesicles
Procedure: Electrophysiology experiments were carried out to determine the potency of each peptide. […] It is known that the activity of I ...

ryanodine receptor = target: T2, ryanodine receptor (Oryctolagus cuniculus, UniProt P11716); experiment: Single channel recording, exposure to peptide (sheet "Supp Fig 11"; RyR isoform not given); format: biochemical; details: IpTxA; combined average 100pM, 1nM and 5nM; 7 listed values; sem 0.460531; t-test 3.72E-02; control = 1
T2 construct: skeletal SR vesicles were isolated from the back and leg muscles of mature female New Zealand white rabbits; from tissue; host or cells: rabbit back and leg skeletal muscle, sarcoplasmic reticulum vesicles
Text: Supplement 41467_2023_36579_MOESM6_ESM.xlsx, sheet "Supp Fig 11" | column: mean Tc; mean To; mean Po; rel Tc; rel To; rel Po

RyR1 [3] = target: T1, RyR1; experiment: Single channel electrophysiology of RyR1 channels inserted into lipid bilayers (exposure to peptide); format: biochemical, New Zealand white rabbit (skeletal SR); details: +40 mV
Procedure: Cardiac SR was prepared from mature female crossbred sheep hearts, and skeletal SR vesicles were isolated from the back and leg muscles of mature female New Zealand white rabbits[29],[54] with approval from the ANU Animal Experiment Ethics Committee Protocol Number A2015/35. […] Solutions for vesicle incorporation contained (mM): cis 230 caesium methanesulfonate (CsMS); 20 CsCl; 1 CaCl2 and 10 […] (TES) pH 7.4 and trans 30 CsMS; 20 CsCl; 1 CaCl2 10 TES; pH 7.4. […] Following incorporation, 200 mM CsMS was added to the trans solution and the cis solution exchanged with recording solution containing (mM): 230 CsMS; 20 CsCl; 0.001 CaCl2;10 TES and pH 7.4, with [Ca^2+] set by a [BAPTA] determined using a Ca^2+ electrode. The cytoplasmic and luminal solutions contained 1 μM and 1 mM Ca^2+ respectively, with symmetrical 250/250 mM CsMS. Bilayer voltage was switched between +40 mV and −40 mV (cytoplasmic voltage relative to grounded luminal solution) every 30 s. The activity of the RyR channels used here included 1 µM Ca^2+ in the cytoplasmic solution and 1 mM Ca^2+ in the luminal solution[29],[55]. Electrophysiology experiments were analysed using Channel 2 (P.W. Gage, M. Smith, Australian National University) and Channel 3 (N.W. Laver, University of Newcastle, Australia) software, available from the authors upon request. Statistical analyses were performed using Microsoft Excel (Office 365). […] Following most incorporation events, a single channel only was active in the bilayer and channel open probability (Po), mean open time (To), mean closed time (Tc) and open event frequency (Fo) were measured. When 2–4 channels were active in a bilayer, PO was approximated from the fractional mean current (I’F), i.e., mean current divided by maximum current. I’F is equal to PO in a single channel and indicates the average PO of multiple channels in a bilayer. […] Experiments at UN also included a minority of multi-channel experiments. The bilayer rigs, solution composition, source of channels, data acquisition and analyses methods were all identical.
Statistical analysis of single channel data was performed using Excel spreadsheets and embedded Students t-test functions or a sign test as indicated in the graphs in Figs. 1 and 3.

TRPV1 = details: cited from earlier work
RyR1 [4] = system: RyR1; set-up: method as in PMID 21323602; details: cited from earlier work
RyR2 = system: RyR2; set-up: method as in PMID 21323602; details: cited from earlier work

T1 sequence (P11716 whole entry): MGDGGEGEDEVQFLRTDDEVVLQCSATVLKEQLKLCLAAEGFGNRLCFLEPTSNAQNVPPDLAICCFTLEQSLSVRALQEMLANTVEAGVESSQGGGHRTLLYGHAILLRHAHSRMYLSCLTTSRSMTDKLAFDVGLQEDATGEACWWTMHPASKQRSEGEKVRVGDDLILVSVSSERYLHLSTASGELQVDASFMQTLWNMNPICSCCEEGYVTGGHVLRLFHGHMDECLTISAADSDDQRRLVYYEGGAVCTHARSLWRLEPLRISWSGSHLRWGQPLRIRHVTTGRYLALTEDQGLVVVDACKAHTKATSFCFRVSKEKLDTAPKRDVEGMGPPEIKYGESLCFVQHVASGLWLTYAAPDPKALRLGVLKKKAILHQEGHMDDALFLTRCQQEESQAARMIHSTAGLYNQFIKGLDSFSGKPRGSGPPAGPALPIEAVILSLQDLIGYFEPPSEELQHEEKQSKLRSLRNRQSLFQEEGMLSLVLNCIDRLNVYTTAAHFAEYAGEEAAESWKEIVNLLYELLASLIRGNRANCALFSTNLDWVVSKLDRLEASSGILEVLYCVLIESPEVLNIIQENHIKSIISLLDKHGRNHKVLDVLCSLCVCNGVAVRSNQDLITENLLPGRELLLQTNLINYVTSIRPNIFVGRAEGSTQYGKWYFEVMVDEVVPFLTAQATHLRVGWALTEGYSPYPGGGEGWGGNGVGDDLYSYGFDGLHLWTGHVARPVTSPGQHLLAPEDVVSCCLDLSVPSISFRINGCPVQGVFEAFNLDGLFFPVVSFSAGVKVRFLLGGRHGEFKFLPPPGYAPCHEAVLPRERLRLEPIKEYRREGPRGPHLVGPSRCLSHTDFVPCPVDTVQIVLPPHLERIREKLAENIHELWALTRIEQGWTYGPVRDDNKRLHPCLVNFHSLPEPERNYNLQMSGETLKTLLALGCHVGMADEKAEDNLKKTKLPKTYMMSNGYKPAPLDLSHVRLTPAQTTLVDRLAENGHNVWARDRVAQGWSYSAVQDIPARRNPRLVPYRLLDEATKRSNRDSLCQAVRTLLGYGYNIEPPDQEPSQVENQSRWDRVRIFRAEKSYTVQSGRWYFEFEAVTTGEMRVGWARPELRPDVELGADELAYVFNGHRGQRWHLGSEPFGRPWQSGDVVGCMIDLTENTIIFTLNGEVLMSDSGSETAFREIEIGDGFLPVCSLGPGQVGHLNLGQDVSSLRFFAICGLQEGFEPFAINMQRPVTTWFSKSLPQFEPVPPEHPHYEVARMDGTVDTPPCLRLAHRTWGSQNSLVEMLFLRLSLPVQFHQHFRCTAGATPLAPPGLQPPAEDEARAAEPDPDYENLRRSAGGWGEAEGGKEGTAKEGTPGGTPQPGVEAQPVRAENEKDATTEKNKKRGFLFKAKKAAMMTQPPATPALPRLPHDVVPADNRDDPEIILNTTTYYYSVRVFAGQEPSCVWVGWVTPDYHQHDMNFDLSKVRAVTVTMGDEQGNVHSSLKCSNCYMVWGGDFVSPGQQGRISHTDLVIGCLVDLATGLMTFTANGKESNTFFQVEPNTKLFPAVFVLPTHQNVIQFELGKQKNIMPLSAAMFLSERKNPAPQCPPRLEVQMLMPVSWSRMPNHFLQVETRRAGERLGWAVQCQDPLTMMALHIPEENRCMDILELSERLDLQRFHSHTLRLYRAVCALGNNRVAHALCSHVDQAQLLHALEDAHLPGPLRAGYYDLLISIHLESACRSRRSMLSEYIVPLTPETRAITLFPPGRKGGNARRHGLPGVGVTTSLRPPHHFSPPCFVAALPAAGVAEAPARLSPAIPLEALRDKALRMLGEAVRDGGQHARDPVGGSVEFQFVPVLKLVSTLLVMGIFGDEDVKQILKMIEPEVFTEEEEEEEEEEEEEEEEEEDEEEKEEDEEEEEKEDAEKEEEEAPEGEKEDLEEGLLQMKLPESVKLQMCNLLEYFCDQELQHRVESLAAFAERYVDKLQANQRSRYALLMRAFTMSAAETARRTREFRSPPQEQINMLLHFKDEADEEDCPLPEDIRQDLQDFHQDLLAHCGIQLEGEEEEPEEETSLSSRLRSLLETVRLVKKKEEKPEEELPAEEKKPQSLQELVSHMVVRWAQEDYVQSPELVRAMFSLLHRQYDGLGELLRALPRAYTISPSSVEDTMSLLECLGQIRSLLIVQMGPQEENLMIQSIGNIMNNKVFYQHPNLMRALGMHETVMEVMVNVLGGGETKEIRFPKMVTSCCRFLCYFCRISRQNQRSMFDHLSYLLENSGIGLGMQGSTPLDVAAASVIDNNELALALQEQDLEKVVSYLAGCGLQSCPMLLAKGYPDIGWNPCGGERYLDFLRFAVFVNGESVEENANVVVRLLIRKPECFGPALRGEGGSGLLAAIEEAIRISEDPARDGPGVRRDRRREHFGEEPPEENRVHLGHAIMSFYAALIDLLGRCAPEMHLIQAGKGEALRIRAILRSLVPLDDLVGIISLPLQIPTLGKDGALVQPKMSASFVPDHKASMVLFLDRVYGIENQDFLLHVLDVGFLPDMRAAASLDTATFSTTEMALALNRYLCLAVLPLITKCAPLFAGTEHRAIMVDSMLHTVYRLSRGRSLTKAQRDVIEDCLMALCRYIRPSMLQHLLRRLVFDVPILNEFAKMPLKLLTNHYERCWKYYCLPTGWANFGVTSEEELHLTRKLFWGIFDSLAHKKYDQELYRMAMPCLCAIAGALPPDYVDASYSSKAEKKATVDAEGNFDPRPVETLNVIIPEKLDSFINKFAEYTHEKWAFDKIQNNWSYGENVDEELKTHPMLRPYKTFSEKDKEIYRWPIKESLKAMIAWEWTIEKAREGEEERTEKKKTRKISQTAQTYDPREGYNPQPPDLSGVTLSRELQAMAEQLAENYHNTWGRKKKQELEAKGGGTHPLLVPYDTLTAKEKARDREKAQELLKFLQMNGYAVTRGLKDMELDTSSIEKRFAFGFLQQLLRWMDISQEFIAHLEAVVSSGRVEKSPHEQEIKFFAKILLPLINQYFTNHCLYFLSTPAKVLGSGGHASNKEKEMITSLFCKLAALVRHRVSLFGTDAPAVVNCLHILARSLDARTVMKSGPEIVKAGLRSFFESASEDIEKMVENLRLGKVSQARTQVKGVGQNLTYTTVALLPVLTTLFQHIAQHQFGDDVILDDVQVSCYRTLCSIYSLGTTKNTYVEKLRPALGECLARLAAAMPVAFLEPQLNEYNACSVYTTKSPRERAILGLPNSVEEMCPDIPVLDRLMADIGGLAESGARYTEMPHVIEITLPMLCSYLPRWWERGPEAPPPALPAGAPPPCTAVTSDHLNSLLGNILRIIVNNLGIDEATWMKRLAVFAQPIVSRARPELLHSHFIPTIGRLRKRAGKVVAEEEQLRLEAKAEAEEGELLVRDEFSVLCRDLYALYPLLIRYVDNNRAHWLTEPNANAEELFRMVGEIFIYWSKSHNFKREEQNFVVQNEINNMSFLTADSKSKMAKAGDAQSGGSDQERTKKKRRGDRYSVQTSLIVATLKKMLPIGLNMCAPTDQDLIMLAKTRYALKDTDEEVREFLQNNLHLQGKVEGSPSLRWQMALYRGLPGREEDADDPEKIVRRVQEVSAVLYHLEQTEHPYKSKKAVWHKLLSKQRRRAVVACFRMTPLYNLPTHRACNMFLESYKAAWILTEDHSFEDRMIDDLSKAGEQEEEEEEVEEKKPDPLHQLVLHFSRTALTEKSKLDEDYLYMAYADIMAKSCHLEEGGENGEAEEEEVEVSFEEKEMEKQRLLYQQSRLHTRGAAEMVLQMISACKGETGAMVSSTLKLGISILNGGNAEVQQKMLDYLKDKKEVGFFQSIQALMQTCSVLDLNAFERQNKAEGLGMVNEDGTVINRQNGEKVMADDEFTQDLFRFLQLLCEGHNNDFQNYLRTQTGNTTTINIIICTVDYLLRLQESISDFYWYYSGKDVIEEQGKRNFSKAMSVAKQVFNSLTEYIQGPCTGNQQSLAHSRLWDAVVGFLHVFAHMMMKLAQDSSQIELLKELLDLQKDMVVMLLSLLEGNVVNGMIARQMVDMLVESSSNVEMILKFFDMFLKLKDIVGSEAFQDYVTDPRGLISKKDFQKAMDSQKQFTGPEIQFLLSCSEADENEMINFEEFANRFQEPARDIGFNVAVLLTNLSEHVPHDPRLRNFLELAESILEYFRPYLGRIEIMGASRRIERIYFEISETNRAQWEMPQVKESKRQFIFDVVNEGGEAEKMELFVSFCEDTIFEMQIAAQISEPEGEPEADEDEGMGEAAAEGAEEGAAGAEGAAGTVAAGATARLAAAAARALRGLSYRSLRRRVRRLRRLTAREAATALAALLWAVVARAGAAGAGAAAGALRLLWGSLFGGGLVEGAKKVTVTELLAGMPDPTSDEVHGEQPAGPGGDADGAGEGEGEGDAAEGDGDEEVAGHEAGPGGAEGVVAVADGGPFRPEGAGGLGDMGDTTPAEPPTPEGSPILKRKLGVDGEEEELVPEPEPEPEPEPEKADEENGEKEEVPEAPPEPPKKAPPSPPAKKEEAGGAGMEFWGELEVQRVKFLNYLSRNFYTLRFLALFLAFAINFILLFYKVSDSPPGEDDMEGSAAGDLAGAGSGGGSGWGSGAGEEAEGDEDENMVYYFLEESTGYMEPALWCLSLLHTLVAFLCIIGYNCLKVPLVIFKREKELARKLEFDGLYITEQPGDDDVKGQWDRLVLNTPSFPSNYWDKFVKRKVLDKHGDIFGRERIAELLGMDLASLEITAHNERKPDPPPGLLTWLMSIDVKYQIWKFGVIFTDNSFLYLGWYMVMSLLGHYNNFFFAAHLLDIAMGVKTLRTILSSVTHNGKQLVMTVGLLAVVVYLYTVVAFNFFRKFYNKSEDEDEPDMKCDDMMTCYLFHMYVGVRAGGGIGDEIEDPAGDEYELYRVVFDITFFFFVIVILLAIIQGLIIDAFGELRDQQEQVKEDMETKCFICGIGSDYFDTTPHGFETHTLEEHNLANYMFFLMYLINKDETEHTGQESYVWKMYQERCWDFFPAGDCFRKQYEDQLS
T2 sequence (P11716 whole entry, canonical isoform): as the sequence (P11716 whole entry) above

imperatoxin-A (GDCLPHLKRCKADNDCCGKKCKRRGTNAEKRCR; not fully specified; ends and bridges not checked; UniProt P59868 1-33, looked up) [IpTxA, member of the calcin family of scorpion derived ICK toxins, recombinant (SUMO fusion), reference compound]
efficiency to increase SR Ca2+ leakage (order) ([1]; 10 nM): Xt3a > Xt3a-D1 ~ IpTxA > Xt3a-D2 | depletion of [CaT]SR ([1]; 10 nM peptide in leak solution, 1 min leak, mean ± SD, control leak 18 ± 7%): 55 ± 18% | Relative amount of total Ca2+ left in the SR ([CaT]SR) ([1]; 10 nM peptide, 1 min leak, relative to Pre, fiber 2 of column): 17.9 | Relative amount of total Ca2+ left in the SR ([CaT]SR) ([1]; 10 nM peptide, 1 min leak, relative to Pre, fiber 3 of column): 33.5 | Relative amount of total Ca2+ left in the SR ([CaT]SR) ([1]; 10 nM peptide, 1 min leak, relative to Pre, fiber 4 of column): 46.4 | Relative amount of total Ca2+ left in the SR ([CaT]SR) ([1]; 10 nM peptide, 1 min leak, relative to Pre, fiber 5 of column): 44.7 | Relative amount of total Ca2+ left in the SR ([CaT]SR) ([1]; 10 nM peptide, 1 min leak, relative to Pre, fiber 6 of column): 44.3 | Relative amount of total Ca2+ left in the SR ([CaT]SR) ([1]; 10 nM peptide, 1 min leak, relative to Pre, fiber 7 of column): 51.6 | Relative amount of total Ca2+ left in the SR ([CaT]SR) ([1]; 10 nM peptide, 1 min leak, relative to Pre, fiber 8 of column): 48.5 | Relative amount of total Ca2+ left in the SR ([CaT]SR) ([1]; 10 nM peptide, 1 min leak, relative to Pre, fiber 9 of column): 70.6 | Relative amount of total Ca2+ left in the SR ([CaT]SR) ([1]; 10 nM peptide, 1 min leak, relative to Pre, fiber 10 of column): 71.5 | Relative amount of total Ca2+ left in the SR ([CaT]SR), mean ([1]; 10 nM peptide, 1 min leak, relative to Pre, mean (n = 13 Xt3a, n = 10 others)): 44.8 | Relative amount of total Ca2+ left in the SR ([CaT]SR) ([1]; 10 nM peptide, 1 min leak, relative to [CaT]SR before the leak (Pre), fiber 1 of column): 19.4 | reversibility of activity (RyR1 [2]): reversible | mean rel Po (ryanodine receptor): 1.9 | activation of RyR1 (RyR1 [3]; 0.1 nM n=2, 1 nM n=3, 10 nM n=2 grouped (n=7, P=3.7E-02)): show activation withn a similar range | activation of RyR1 channels (RyR1 [3]; isolated domains and IpTxA): potent (pM to nM) activation of RyR1 channels

B1: DkTx: double-knot spider toxin with tandem repeat ICK structure, TRPV1 (peptide, UniProt P0CH43 1-79, looked up)
Tau-theraphotoxin-Hs1a: DCAKEGEVCSWGKKCCDLDNFYCPMEFIPHCKKYKPYVPVTTNCAKEGEVCGWGSKCCHGLDCPLAFIPYCEKYRGRND
avidity on washout (TRPV1): high avidity, evidenced by persistent activity during washout

B2: GSTm2: glutathione transferase reported to modulate RyR1 and RyR2 (protein, UniProt P28161 1-218, looked up)
Glutathione S-transferase Mu 2: MPMTLGYWNIRGLAHSIRLLLEYTDSSYEEKKYTMGDAPDYDRSQWLNEKFKLGLDFPNLPYLIDGTHKITQSNAILRYIARKHNLCGESEKEQIREDILENQFMDSRMQLAKLCYDPDFEKLKPEYLQALPEMLKLYSQFLGKQPWFLGDKITFVDFIAYDVLERNQVFEPSCLDAFPNLKDFISRFEGLEKISAYMKSSRFLPRPVFTKMAVWGNK
effect on RyR1 activity (RyR1 [4]): slightly increases the activity of RyR1 | effect on RyR2 activity (RyR2): strongly inhibits RyR2
